The record followed here is patent US11033496B2, “Nanoparticles for delivery of chemopreventive agents” (OHIO STATE INNOVATION FOUNDATION, priority 2017, dated 2021).

Like-named read-outs stand apart in the source and are kept apart here.

This series has as its system human OSCC cells (three oral SCC cell lines). The class given is cell-based. Particulars: for maximum uptake (fluorescence intensity): 6 h. The protocol: Mean±S.D., n=18, *=p<0.01, ‡=p,0.001, Mann Whitney U 2-tailed test.
The internalization of free-IDA was more rapid than IDA-NP after 1-hour at 1000 nM (free-IDA: 21.08±5.33 vs. IDA-NP: 12.87±4.32). However, the maximum uptake of IDA-NP was greater than free-IDA after 6 hours at 2500 nM (IDA-NP: 43.53±8.42 vs. free-IDA: 27.61±5.66) and 5000 nM (IDA-NP: 64.44±12.71 vs. free-IDA: 31.06±7.24). [Data collected from three oral SCC cell lines, mean±SD, n=18, *P≤0.01 †P≤0.002, ‡P≤0.001; IDA-NP samples compared to free-IDA samples [Mann-Whitney U two-tailed Test].

With `CC(=O)[C@]1(O)Cc2c(O)c3c(c(O)c2[C@@H](O[C@H]2C[C@H](N)[C@H](O)[C@H](C)O2)C1)C(=O)c1ccccc1C3=O` [free-IDA, idarubicin], the “internalization / cellular uptake (fluorescence intensity)” value (1 h, 1000 nM) was 21.08±5.33. Besides, the “maximum uptake (fluorescence intensity)” value by setting is: (2500 nM) 27.61±5.66; (5000 nM) 31.06±7.24.
